In publication PMC8219695 (Nature Communications, 2021):
Several values for one entry are separate records, joined by “and”; a condition that tells them apart may be missing. Equal entries are not always repeated.

Experiments:
Assay type in all cases: cell-based
mDOR = target: T1, mDOR (Mus musculus, UniProt P32300); assay: CAMYEL BRET cAMP agonist assay at mDOR; conditions: for Agonist activity of 7OH analogs at mDOR: single replicate values, Supplementary Figure 7B
T1 construct: expressed in transfected cells
T1 sequence (P32300 whole entry): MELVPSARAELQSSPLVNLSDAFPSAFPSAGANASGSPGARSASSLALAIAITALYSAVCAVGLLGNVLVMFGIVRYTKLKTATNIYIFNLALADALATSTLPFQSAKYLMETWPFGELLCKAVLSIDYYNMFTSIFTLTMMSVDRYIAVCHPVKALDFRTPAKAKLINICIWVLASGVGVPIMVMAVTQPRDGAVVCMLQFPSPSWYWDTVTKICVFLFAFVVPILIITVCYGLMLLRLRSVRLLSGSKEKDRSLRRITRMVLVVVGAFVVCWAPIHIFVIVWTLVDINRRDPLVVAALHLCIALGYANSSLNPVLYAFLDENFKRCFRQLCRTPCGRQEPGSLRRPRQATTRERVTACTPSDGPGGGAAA

hDOR = hDOR (Homo sapiens, UniProt P41143); assay: CAMYEL BRET cAMP agonist assay at hDOR; conditions: for Agonist activity of 7OH analogs at hDOR: single replicate values, Supplementary Figure 7A
hDOR, sequence (P41143 whole entry): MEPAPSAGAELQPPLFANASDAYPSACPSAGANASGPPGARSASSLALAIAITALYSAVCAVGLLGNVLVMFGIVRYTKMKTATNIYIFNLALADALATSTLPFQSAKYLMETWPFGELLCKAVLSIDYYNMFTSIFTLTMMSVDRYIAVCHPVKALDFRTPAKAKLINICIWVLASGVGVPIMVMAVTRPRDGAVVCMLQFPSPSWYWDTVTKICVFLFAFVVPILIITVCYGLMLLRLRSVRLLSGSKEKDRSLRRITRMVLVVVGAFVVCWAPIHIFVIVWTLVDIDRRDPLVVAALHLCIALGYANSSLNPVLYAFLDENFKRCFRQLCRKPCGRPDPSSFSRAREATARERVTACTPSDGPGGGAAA

rKOR = target: T2, rKOR (Rattus norvegicus, UniProt P34975); assay: CAMYEL BRET cAMP agonist assay at rKOR; conditions: individual replicates, Supplementary Figure 8B source data
T2 construct: expressed in transfected cells
T2 sequence (P34975 whole entry): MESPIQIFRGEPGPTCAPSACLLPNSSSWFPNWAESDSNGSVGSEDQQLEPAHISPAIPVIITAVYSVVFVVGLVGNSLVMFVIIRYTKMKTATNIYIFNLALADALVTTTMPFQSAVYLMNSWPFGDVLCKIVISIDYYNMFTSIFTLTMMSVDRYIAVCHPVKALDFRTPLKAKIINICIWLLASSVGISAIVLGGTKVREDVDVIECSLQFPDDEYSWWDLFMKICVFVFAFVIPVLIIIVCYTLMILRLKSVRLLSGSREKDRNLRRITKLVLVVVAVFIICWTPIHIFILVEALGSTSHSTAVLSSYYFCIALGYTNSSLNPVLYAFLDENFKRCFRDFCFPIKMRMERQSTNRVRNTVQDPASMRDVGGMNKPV

hKOR = hKOR (Homo sapiens, UniProt P41145); assay: CAMYEL BRET cAMP agonist assay at hKOR; conditions: individual replicates, Supplementary Figure 8A source data
hKOR, sequence (P41145 whole entry): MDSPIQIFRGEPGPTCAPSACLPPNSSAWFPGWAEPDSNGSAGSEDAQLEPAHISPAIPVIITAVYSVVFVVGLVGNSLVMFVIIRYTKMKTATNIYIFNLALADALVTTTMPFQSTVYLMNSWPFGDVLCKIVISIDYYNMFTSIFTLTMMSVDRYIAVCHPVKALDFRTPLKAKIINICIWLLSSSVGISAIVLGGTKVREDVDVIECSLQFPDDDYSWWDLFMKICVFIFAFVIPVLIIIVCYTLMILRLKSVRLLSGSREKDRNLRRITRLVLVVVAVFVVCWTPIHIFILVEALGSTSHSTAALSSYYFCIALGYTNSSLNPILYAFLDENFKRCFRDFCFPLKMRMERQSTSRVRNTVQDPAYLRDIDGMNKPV

## CC[C@@H]1CN2CC[C@@]3(O)C(=Nc4cc(Br)cc(OC)c43)[C@@H]2C[C@@H]1/C(=C\OC)C(=O)OC [11-Br-7OH (24), 11-Br-7OH]
mDOR; Log[drug] (M) -6
  Agonist activity of 7OH analogs at mDOR: 28.5316 and 7.81 and 20.2665 and 20.4093 and 17.1261 and 17.3487 and 14.4976 and 7.195 and 12.5927
mDOR; Log[drug] (M) -7
  Agonist activity of 7OH analogs at mDOR: 11.1893 and 13.4547 and 27.5656 and 14.54 and 12.7942 and 5.698 and 4.253 and 2.065 and 7.661
mDOR; Log[drug] (M) -8
  Agonist activity of 7OH analogs at mDOR: 10.5957 and 18.0747 and 9.651 and 4.935 and -3.078 and 4.75 and 6.109 and 1.285 and 9.808
mDOR; Log[drug] (M) -9
  Agonist activity of 7OH analogs at mDOR: 17.3278 and 15.5005 and 47.145 and -2.094 and 7.434 and -5.339 and 5.642 and -1.53 and 3.1
mDOR; Log[drug] (M) -10
  Agonist activity of 7OH analogs at mDOR: 8.93 and 5.939 and 6.52 and 4.461 and 5.129 and -1.733 and 2.478 and 3.975 and -1.971
mDOR; Log[drug] (M) -11
  Agonist activity of 7OH analogs at mDOR: 10.869 and 6.17 and -5.4274 and 13.8383 and 9.771 and 11.6667 and 2.792 and -1.117 and -1.6751
mDOR; Log[drug] (M) -13
  Agonist activity of 7OH analogs at mDOR: -4.49 and 2.526 and 1.964 and 13.4101 and 7.388 and 17.2326 and -5.081 and 4.508 and 13.385
mDOR; mDOR cAMP BRET, positive control DPDPE
  Emax: very low efficacy
hDOR; Log[drug] (M) -5
  Agonist activity of 7OH analogs at hDOR: 4.7 and 25.3039 and 6.573 and 24.0158 and 10.0458 and 10.1909 and 12.9945 and 10.3075
hDOR; Log[drug] (M) -6
  Agonist activity of 7OH analogs at hDOR: 13.1842 and 10.2252 and 8.595 and 5.73 and 12.7267 and 14.3479 and 6.336 and 13.8749
hDOR; Log[drug] (M) -7
  Agonist activity of 7OH analogs at hDOR: 14.5317 and -1.155 and 1.334 and 28.0039 and 13.2568 and 5.897 and 5.1203 and 15.4297
hDOR; Log[drug] (M) -8
  Agonist activity of 7OH analogs at hDOR: 10.6504 and 18.084 and 4.153 and 20.0173 and 1.0999 and 15.8027 and 12.7278 and 11.7823 and 20.1626
hDOR; Log[drug] (M) -9
  Agonist activity of 7OH analogs at hDOR: 19.553 and 11.3403 and 28.4089 and 9.179 and -1.427 and -6.158 and 5.452 and 0.7244 and 17.3106
hDOR; Log[drug] (M) -10
  Agonist activity of 7OH analogs at hDOR: 3.839 and 3.779 and 7.219 and -2.673 and 3.726 and -0.9121 and -0.9075 and -0.119 and 1.027
hDOR; Log[drug] (M) -11
  Agonist activity of 7OH analogs at hDOR: 6.722 and 21.7822 and 0.8452 and 0.831 and -3.07 and 2.24 and 15.2814 and 3.682 and 0.8607
hDOR; Log[drug] (M) -13
  Agonist activity of 7OH analogs at hDOR: -12.8405 and 3.455 and 9.386 and 2.252 and 8.162 and 14.0199 and 6.2368 and 9.608 and 10.0864
hDOR; hDOR cAMP BRET, positive control DPDPE
  Emax: very low efficacy
rKOR; Log [drug](M) -5
  Agonist activity of 7OH analogs at rKOR: 25.6296 and -9.743 and 0.6611 and 8.628 and -4.988 and 6.198 and 4.323 and 3.4884 and 6.258
rKOR; Log [drug](M) -6
  Agonist activity of 7OH analogs at rKOR: 5.472 and -3.314 and -2.157 and 12.7013 and 24.7501 and 18.1661 and 1.856 and -1.539 and -0.3161
rKOR; Log [drug](M) -7
  Agonist activity of 7OH analogs at rKOR: 4.7985 and -15.0915 and 10.4804 and 13.2829 and 19.8014 and 0.6752 and 3.169 and 0.0803 and -0.9699
rKOR; Log [drug](M) -8
  Agonist activity of 7OH analogs at rKOR: 15.8006 and 9.743 and 5.004 and 1.565 and 3.381 and -4.9468 and 4.551 and 0.2655 and 16.2208
rKOR; Log [drug](M) -9
  Agonist activity of 7OH analogs at rKOR: 2.391 and 0.4693 and -2.7298 and 8.844 and 10.6443 and -8.128 and 0.4192 and -1.635 and 9.514
rKOR; Log [drug](M) -10
  Agonist activity of 7OH analogs at rKOR: -3.09 and -6.057 and 13.4494 and 16.7517 and 7.424 and 2.462 and 3.397 and 1.924 and 5.164
rKOR; Log [drug](M) -11
  Agonist activity of 7OH analogs at rKOR: -9.158 and 9.8247 and 5.5119 and -1.702 and 25.9779 and 16.6823 and 6.047 and 6.143 and 5.108
rKOR; Log [drug](M) -13
  Agonist activity of 7OH analogs at rKOR: -5.115 and 8.484 and 8.583 and 29.3433 and 7.52 and 9.7517 and 3.9044 and 5.761 and 8.186
hKOR; Log [drug](M) -5
  Agonist activity of 7OH analogs at hKOR: 10.9149 and -7.215 and 4.286 and 11.8421 and 11.499 and 10.9733 and -4.579 and 2.634 and 3.416
hKOR; Log [drug](M) -6
  Agonist activity of 7OH analogs at hKOR: 3.035 and -0.7724 and -13.4731 and 3.219 and -0.695 and 8.186 and -5.571 and -3.171 and 0.4347
hKOR; Log [drug](M) -7
  Agonist activity of 7OH analogs at hKOR: -0.1722 and -16.4342 and -16.1746 and -2.26 and -3.79 and -3.25 and 0.1411 and 2.3 and 5.19
hKOR; Log [drug](M) -8
  Agonist activity of 7OH analogs at hKOR: 22.3379 and -4.57 and 1.209 and 8.576 and -8.308 and -4.317 and 11.4126 and 9.041 and 4.453
hKOR; Log [drug](M) -9
  Agonist activity of 7OH analogs at hKOR: 2.393 and 14.1276 and 3.431 and 19.0489 and 8.55 and -5.559 and -3.604 and -6.454 and -4.21
hKOR; Log [drug](M) -10
  Agonist activity of 7OH analogs at hKOR: -9.31 and -5.502 and 19.956 and 11.266 and -0.5812 and -7.816 and -4.981 and -0.9266 and -11.4459
hKOR; Log [drug](M) -11
  Agonist activity of 7OH analogs at hKOR: 21.966 and -9.511 and 21.9409 and -12.3295 and 2.605 and 7.521 and 2.85 and -2.233 and 3.089
hKOR; Log [drug](M) -13
  Agonist activity of 7OH analogs at hKOR: -3.621 and -4.92 and 8.541 and 7.349 and -4.448 and -2.901 and 2.036 and -3.052 and 1.015
